Columns and labels:
[1] = molecular target: Casein kinase II subunit alpha (Homo sapiens) (UniProt P68400); assay: Inhibition of T7 bacteriophage fused human CSNK2A1 at 10 uM by KINOMEscan analysis relative to control
[2] = molecular target: Bone morphogenetic protein receptor type-2 (Homo sapiens) (UniProt Q13873); assay: Inhibition of T7 bacteriophage fused human BMPR2 at 10 uM by KINOMEscan analysis relative to control
[3] = tested on: Epidermal growth factor receptor (Homo sapiens), P00533 [UNDEFINED MUTATION]; assay: Inhibition of T7 bacteriophage fused human EGFR S752-I759del mutant at 10 uM by KINOMEscan analysis relative to control; values are per cent of control
Epidermal growth factor receptor (Homo sapiens), P00533 [UNDEFINED MUTATION], sequence (P00533 whole entry, looked up, stated change not applied, the tested form may be a part): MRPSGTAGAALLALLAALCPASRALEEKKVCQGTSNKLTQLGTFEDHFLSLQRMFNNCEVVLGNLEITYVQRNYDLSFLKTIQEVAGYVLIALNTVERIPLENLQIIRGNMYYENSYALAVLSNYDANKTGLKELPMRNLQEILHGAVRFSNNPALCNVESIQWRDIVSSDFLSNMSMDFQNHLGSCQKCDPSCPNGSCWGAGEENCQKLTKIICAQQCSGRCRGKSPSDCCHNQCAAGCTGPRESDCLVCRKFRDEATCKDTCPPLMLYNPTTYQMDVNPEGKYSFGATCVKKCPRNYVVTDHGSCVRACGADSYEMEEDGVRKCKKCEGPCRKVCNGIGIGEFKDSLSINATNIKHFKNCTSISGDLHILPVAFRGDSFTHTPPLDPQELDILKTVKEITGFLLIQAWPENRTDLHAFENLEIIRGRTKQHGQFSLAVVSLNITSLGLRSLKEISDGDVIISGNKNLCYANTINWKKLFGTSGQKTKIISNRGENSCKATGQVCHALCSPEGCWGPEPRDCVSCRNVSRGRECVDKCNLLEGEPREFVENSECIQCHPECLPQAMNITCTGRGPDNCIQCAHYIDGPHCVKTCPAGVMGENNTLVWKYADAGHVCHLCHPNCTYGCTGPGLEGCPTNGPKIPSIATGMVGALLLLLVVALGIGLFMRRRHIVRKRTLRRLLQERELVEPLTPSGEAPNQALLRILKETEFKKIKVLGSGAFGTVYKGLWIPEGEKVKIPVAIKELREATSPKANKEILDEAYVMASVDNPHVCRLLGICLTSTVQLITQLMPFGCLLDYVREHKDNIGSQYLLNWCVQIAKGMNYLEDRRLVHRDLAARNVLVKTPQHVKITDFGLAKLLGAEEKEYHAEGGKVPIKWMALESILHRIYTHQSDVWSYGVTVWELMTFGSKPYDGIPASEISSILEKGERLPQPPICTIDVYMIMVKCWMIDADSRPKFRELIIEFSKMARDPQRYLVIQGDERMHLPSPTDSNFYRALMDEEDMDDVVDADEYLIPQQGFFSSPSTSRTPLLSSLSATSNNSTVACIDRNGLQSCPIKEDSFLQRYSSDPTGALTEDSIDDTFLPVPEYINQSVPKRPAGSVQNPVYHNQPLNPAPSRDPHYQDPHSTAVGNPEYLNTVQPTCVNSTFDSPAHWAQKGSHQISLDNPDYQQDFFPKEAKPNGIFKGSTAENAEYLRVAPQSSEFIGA

[4] = molecular target: Serine/threonine-protein kinase RIO1 (Homo sapiens) (UniProt Q9BRS2); assay: Inhibition of T7 bacteriophage fused human RIOK1 at 10 uM by KINOMEscan analysis relative to control
[5] = molecular target: Death-associated protein kinase 3 (Homo sapiens) (UniProt O43293); assay: Inhibition of T7 bacteriophage fused human DAPK3 at 10 uM by KINOMEscan analysis relative to control; values are per cent of control
Death-associated protein kinase 3 (Homo sapiens), sequence (O43293 whole entry, looked up, the tested form may be a part): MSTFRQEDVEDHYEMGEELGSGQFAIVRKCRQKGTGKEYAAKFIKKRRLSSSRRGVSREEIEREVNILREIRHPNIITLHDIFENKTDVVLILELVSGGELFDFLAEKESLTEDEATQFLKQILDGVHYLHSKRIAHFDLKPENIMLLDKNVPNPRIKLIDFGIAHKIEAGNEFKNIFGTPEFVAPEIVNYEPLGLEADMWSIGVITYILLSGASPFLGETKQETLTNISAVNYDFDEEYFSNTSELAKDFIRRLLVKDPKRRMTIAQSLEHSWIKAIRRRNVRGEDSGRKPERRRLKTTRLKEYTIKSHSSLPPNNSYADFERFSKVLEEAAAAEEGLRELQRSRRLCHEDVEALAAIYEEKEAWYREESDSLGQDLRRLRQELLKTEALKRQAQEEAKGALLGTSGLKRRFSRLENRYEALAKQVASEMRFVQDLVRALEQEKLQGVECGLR

[6] = molecular target: Dual specificity mitogen-activated protein kinase kinase 5 (Homo sapiens) (UniProt Q13163); assay: Inhibition of T7 bacteriophage fused human MEK5 at 10 uM by KINOMEscan analysis relative to control; values are per cent of control
[7] = molecular target: Homeodomain-interacting protein kinase 4 (Homo sapiens) (UniProt Q8NE63); assay: Inhibition of T7 bacteriophage fused human HIPK4 at 10 uM by KINOMEscan analysis relative to control
[8] = molecular target: Serine/threonine-protein kinase LATS2 (Homo sapiens) (UniProt Q9NRM7); assay: Inhibition of T7 bacteriophage fused human LATS2 at 10 uM by KINOMEscan analysis relative to control; values are per cent of control
[9] = tested on: Epidermal growth factor receptor (Homo sapiens), P00533 [L861Q]; assay: Inhibition of T7 bacteriophage fused human EGFR L861Q mutant at 10 uM by KINOMEscan analysis relative to control
[10] = molecular target: RAC-gamma serine/threonine-protein kinase (Homo sapiens) (UniProt Q9Y243); assay: Inhibition of T7 bacteriophage fused human AKT3 at 10 uM by KINOMEscan analysis relative to control
RAC-gamma serine/threonine-protein kinase (Homo sapiens), sequence (Q9Y243 whole entry, the tested form may be a part): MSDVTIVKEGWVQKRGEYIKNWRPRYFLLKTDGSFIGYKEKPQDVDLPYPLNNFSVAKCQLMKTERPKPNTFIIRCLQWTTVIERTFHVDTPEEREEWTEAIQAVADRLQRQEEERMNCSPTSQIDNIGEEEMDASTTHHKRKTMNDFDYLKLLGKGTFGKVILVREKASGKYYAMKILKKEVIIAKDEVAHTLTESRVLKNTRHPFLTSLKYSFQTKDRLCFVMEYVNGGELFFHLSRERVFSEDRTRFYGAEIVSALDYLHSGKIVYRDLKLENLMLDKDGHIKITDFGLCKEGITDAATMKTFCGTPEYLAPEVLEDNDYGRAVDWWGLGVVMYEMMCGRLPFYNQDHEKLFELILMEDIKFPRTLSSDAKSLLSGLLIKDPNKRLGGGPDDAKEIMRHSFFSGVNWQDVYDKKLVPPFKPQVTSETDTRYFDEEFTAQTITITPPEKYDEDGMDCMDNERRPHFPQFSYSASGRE

[11] = molecular target: Serine/threonine-protein kinase Nek5 (Homo sapiens) (UniProt Q6P3R8); assay: Inhibition of T7 bacteriophage fused human NEK5 at 10 uM by KINOMEscan analysis relative to control
[12] = molecular target: Cyclin-dependent kinase 3 (Homo sapiens) (UniProt Q00526); assay: Inhibition of T7 bacteriophage fused human CDK3 at 10 uM by KINOMEscan analysis relative to control
[13] = molecular target: Serine/threonine-protein kinase D2 (Homo sapiens) (UniProt Q9BZL6); assay: Inhibition of T7 bacteriophage fused human PRKD2 at 10 uM by KINOMEscan analysis relative to control
[14] = molecular target: Serine/threonine-protein kinase Nek4 (Homo sapiens) (UniProt P51957); assay: Inhibition of T7 bacteriophage fused human NEK4 at 10 uM by KINOMEscan analysis relative to control; values are per cent of control
[15] = molecular target: Serine/threonine-protein kinase Nek1 (Homo sapiens) (UniProt Q96PY6); assay: Inhibition of T7 bacteriophage fused human NEK1 at 10 uM by KINOMEscan analysis relative to control; values are per cent of control
[16] = tested on: Proto-oncogene tyrosine-protein kinase receptor Ret (Homo sapiens), P07949 [V804M]; assay: Inhibition of T7 bacteriophage fused human RET V804M mutant at 10 uM by KINOMEscan analysis relative to control
[17] = tested on: Tyrosine-protein kinase ABL1 (Homo sapiens), P00519 [Y253F]; assay: Inhibition of T7 bacteriophage fused human phosphorylated ABL1 Y253F mutant at 10 uM by KINOMEscan analysis relative to control
[18] = molecular target: Mitogen-activated protein kinase kinase kinase 5 (Homo sapiens) (UniProt Q99683); assay: Inhibition of T7 bacteriophage fused human ASK1 at 10 uM by KINOMEscan analysis relative to control
Mitogen-activated protein kinase kinase kinase 5 (Homo sapiens), sequence (Q99683 whole entry, the tested form may be a part): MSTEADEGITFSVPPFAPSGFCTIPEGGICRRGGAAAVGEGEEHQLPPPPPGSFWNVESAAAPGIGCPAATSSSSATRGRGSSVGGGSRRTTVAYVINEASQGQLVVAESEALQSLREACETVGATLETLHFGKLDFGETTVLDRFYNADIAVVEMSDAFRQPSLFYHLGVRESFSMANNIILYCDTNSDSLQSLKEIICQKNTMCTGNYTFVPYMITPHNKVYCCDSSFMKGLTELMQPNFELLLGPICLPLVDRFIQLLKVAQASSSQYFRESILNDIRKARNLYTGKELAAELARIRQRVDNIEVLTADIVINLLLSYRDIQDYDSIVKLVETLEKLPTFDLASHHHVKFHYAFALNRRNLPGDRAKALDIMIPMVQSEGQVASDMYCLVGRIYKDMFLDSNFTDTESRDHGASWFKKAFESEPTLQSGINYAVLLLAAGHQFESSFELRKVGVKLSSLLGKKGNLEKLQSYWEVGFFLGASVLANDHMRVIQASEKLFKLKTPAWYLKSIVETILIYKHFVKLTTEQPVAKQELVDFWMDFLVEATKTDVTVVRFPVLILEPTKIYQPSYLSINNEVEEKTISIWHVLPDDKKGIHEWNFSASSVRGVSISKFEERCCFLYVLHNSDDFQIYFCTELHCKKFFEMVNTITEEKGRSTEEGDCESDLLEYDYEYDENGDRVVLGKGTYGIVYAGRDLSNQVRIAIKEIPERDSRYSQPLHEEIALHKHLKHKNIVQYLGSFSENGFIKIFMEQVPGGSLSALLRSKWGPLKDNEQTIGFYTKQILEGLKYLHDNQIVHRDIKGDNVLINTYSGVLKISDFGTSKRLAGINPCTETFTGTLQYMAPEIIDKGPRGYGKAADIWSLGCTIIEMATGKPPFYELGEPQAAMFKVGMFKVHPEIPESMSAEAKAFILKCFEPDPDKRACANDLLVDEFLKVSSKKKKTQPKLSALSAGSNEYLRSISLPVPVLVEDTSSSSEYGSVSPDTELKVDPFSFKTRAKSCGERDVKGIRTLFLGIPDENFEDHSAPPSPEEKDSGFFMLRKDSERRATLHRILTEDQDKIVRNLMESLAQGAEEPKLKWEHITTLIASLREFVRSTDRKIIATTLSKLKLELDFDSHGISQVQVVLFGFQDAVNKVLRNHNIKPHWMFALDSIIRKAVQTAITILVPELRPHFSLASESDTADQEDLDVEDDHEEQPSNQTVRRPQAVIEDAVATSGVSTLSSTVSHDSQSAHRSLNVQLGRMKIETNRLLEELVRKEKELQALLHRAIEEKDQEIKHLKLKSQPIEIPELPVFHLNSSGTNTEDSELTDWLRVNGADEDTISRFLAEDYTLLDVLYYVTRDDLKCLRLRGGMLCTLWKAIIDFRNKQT

[19] = molecular target: Insulin-like growth factor 1 receptor (Homo sapiens) (UniProt P08069); assay: Inhibition of T7 bacteriophage fused human IGF1R at 10 uM by KINOMEscan analysis relative to control; values are per cent of control
[20] = molecular target: Phosphatidylinositol 3-kinase C2 domain-containing subunit gamma (Homo sapiens) (UniProt O75747); assay: Inhibition of T7 bacteriophage fused human PIK3C2G at 10 uM by KINOMEscan analysis relative to control
[21] = tested on: Phosphatidylinositol 4,5-bisphosphate 3-kinase catalytic subunit alpha isoform (Homo sapiens), P42336 [Q546K]; assay: Inhibition of T7 bacteriophage fused human PIK3CA Q546K mutant at 10 uM by KINOMEscan analysis relative to control
[22] = molecular target: Serine/threonine-protein kinase MRCK beta (Homo sapiens) (UniProt Q9Y5S2); assay: Inhibition of T7 bacteriophage fused human MRCKB at 10 uM by KINOMEscan analysis relative to control
[23] = tested on: Fibroblast growth factor receptor 3 (Homo sapiens), P22607 [G697C]; assay: Inhibition of T7 bacteriophage fused human FGFR3 G697C mutant at 10 uM by KINOMEscan analysis relative to control
[24] = molecular target: Serine/threonine-protein kinase PAK 3 (Homo sapiens) (UniProt O75914); assay: Inhibition of T7 bacteriophage fused human PAK3 at 10 uM by KINOMEscan analysis relative to control
Serine/threonine-protein kinase PAK 3 (Homo sapiens), sequence (O75914 whole entry, looked up, the tested form may be a part): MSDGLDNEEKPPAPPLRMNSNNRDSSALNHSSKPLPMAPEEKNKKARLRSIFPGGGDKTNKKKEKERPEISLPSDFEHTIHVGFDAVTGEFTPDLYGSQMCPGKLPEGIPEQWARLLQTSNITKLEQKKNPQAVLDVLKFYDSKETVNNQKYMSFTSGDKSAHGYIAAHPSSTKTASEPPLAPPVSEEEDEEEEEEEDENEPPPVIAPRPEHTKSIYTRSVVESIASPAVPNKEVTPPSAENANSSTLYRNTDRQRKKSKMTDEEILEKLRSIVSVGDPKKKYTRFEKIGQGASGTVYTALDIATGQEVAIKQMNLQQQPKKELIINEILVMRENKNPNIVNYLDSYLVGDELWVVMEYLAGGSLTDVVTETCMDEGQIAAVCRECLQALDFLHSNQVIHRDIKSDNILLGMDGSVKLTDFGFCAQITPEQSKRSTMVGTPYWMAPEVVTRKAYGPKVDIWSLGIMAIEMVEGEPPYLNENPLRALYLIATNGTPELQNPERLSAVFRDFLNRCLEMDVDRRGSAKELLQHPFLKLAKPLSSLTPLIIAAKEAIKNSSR

[25] = molecular target: Protein kinase C theta type (Homo sapiens) (UniProt Q04759); assay: Inhibition of T7 bacteriophage fused human PRKCQ at 10 uM by KINOMEscan analysis relative to control
[26] = molecular target: Ribosomal protein S6 kinase alpha-1 (Homo sapiens) (UniProt Q15418); assay: Inhibition of T7 bacteriophage fused human C-terminal RSK1 Kinase domain-2 at 10 uM by KINOMEscan analysis relative to control
[27] = molecular target: G protein-coupled receptor kinase 4 (Homo sapiens) (UniProt P32298); assay: Inhibition of T7 bacteriophage fused human GRK4 at 10 uM by KINOMEscan analysis relative to control; values are per cent of control
[28] = molecular target: Membrane-associated tyrosine- and threonine-specific cdc2-inhibitory kinase (Homo sapiens) (UniProt Q99640); assay: Inhibition of T7 bacteriophage fused human PKMYT1 at 10 uM by KINOMEscan analysis relative to control
[29] = molecular target: Tyrosine-protein kinase BTK (Homo sapiens) (UniProt Q06187); assay: Inhibition of T7 bacteriophage fused human BTK at 10 uM by KINOMEscan analysis relative to control
[30] = molecular target: Activin receptor type-1-like (Homo sapiens) (UniProt P37023); assay: Inhibition of T7 bacteriophage fused human ACVRL1 at 10 uM by KINOMEscan analysis relative to control
Activin receptor type-1-like (Homo sapiens), sequence (P37023 whole entry, the tested form may be a part): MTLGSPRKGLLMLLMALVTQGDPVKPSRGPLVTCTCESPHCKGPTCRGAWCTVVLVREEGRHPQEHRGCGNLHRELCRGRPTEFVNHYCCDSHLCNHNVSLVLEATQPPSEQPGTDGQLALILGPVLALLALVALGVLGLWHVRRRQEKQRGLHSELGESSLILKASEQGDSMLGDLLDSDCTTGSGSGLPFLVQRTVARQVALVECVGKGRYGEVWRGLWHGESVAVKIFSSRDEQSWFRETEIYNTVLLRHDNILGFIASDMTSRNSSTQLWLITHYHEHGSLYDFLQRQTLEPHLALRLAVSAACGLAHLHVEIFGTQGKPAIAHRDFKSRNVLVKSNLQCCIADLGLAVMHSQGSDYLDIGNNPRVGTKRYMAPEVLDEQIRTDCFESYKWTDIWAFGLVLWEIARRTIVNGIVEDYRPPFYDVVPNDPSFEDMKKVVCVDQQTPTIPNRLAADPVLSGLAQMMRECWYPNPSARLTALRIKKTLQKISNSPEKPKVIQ

Casein kinase II subunit alpha (Homo sapiens), sequence (P68400 whole entry, looked up, the tested form may be a part): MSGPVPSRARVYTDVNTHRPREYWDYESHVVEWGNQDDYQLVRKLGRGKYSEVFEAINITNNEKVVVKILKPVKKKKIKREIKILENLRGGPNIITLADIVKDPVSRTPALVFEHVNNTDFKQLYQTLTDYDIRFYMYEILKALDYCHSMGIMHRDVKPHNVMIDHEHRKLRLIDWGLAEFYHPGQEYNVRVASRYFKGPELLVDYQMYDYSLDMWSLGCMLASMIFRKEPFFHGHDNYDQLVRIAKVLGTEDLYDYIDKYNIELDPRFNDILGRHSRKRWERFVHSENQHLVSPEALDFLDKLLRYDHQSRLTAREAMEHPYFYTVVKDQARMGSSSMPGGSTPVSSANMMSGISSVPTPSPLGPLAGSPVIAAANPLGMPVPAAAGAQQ

`COc1cc(N2CCC(N3CCN(C)CC3)CC2)ccc1Nc1ncc2c(n1)N(C)c1ccccc1C(=O)N2C` gave an inhibition [1] of 100%, an inhibition [2] of 100% and a residual activity [3] of 99%. The inhibition [4] was 100%, the residual activity [5] was 67% and the residual activity [6] was 85%. The inhibition [7] was 100%, the residual activity [8] was 95% and the inhibition [9] was 100%. It also gave an inhibition [10] of 100%, an inhibition [11] of 100% and an inhibition [12] of 100%. It also gave an inhibition [13] of 59%, a residual activity [14] of 95% and a residual activity [15] of 83%. For the same compound, the inhibition [16] was 80%, the inhibition [17] was 89% and the inhibition [18] was 100%. The residual activity [19] was 96%, the inhibition [20] was 100% and the inhibition [21] was 91%. For the same compound, the inhibition [22] was 100%, the inhibition [23] was 85% and the inhibition [24] was 83%. It also gave an inhibition [25] of 100%, an inhibition [26] of 10% and a residual activity [27] of 86%. It also gave an inhibition [28] of 80%, an inhibition [29] of 100% and an inhibition [30] of 100%.

Source: ChEMBL document CHEMBL5678810
